How the values were obtained:
Assay type in all cases: cell-based, human
[1] = test system: BxPC3 pancreatic carcinoma cells; test: MTT cytotoxicity test, BxPC3; conditions: for IC50: BxPC3, 72 h, MTT, ± S.D.; for times more effective than cisplatin: BxPC3 cells
Protocol: (§1) The cytotoxic activity of the complexes and of the uncoordinated ligands was evaluated by the MTT test on a panel of human tumor cell lines containing examples of pancreatic (BxPC3), colorectal (HCT-15), breast (MCF-7), cervical (A431), and lung (A549) cancers as well as of melanoma (A375). For comparison purposes, the cytotoxicity of cisplatin was evaluated under the same experimental conditions.
(§2) Cisplatin was dissolved in 0.9% NaCl solution.
(§3) Human breast (MCF-7), colon (HCT-15), lung (A549) and pancreatic (BxPC3) carcinoma cell lines together with melanoma (A375) cells were obtained from American Type Culture Collection (ATCC, Rockville, MD). The human ovarian cancer cell line 2008 and its cisplatin resistant variant, C13*, were kindly provided by Prof. G. Marverti (Department of Biomedical Science of Modena University, Italy). Human cervical carcinoma (A431) cells were kindly provided by Prof. F. Zunino (Division of Experimental Oncology B, Istituto Nazionale dei Tumori, Milan, Italy). Cell lines were maintained in the logarithmic phase at 37 °C in a 5% carbon dioxide atmosphere using the following culture media containing 10% fetal calf serum (Euroclone, Milan, Italy), antibiotics (50 units/mL penicillin and 50 μg/mL streptomycin) and 2 mM L-glutamine: (i) RPMI-1640 medium (Euroclone) for 2008, C13*, MCF-7, HCT-15, A431 and BxPC3 cells, (ii) F-12 HAM’S (Sigma Chemical Co.) for A549 cells, iii) DMEM (Sigma Chemical Co.) for A375 cells.
(§4) The growth inhibitory effect toward tumor cells was evaluated by means of the MTT assay. Briefly, (3–8) × 10^3 cells/well, dependent upon the growth characteristics of the cell line, were seeded in 96-well microplates in growth medium (100 μL). After 24 h, the medium was removed and replaced with fresh medium containing the compound to be studied at the appropriate concentration. Triplicate cultures were established for each treatment. After 24, 48, or 72 h, each well was treated with 10 μL of a 5 mg/mL MTT saline solution and, after 5 h of incubation, 100 μL of a sodium dodecylsulfate (SDS) solution in 0.01 M HCl was added. After an overnight incubation, cell growth inhibition was detected by measuring the absorbance of each well at 570 nm using a Bio-Rad 680 microplate reader. The mean absorbance for each drug dose was expressed as a percentage of the control, untreated well absorbance and plotted vs drug concentration. The IC50 values, the drug concentrations that decrease the mean absorbance at 570 nm to 50% of that of untreated control wells, were calculated from the dose–response curves with the four-parameter logistic model (4PL). The final value is the mean ± S.D. of at least three independent experiments performed in triplicate.

[2] = test system: MCF-7 breast carcinoma cells; test: MTT cytotoxicity test, MCF-7; conditions: MCF-7, 72 h, ± S.D.
Protocol: as §1, §2, §3, §4

[3] = test system: A431 cervical carcinoma cells; test: MTT cytotoxicity test, A431; conditions: A431, 72 h, ± S.D.
Protocol: as §1, §2, §3, §4

[4] = test system: A375 melanoma cells; test: MTT cytotoxicity test, A375; conditions: A375, 72 h, ± S.D.
Protocol: as §1, §2, §3, §4

[5] = test system: C13* cisplatin-resistant ovarian cancer cells; test: MTT cytotoxicity test, cisplatin-resistant C13*; conditions: for IC50: C13* cisplatin-resistant, 72 h, MTT, ± S.D.; for RF (resistance factor): IC50 resistant (C13*) / parent line (2008)
Protocol: The cytotoxic properties of the complexes were also evaluated in a pair of tumor cell lines suitably selected for their sensitivity and resistance to cisplatin (adenocarcinoma cells 2008/C13^*). Cross-resistance profiles were evaluated by means of the resistance factor (RF), defined as the ratio between IC50 values calculated for the resistant cells and those obtained with the sensitive ones (Table 2). The phenomenon of cisplatin resistance is multifactorial in nature.
as §2, §3, §4

[6] = test system: nuclear DNA of A375 cells; test: Nuclear DNA platination (GF-AAS); conditions: A375, 5 μM, 24 h
Protocol: It is well known that the main cellular target of platinum complexes is the DNA, and platination of nuclear DNA is a critical step in triggering the death of cancer cells by platinum-based drugs. On this basis, the amount of platinum bound to nuclear DNA was also assessed in A375 cells treated with the tested Pt(IV) complexes. Cells were treated for 24 h with 5 μM of the tested complexes, the nuclear DNA was isolated and the amount of Pt in each sample was determined by means of GF-AAS analysis. The results expressed as pg Pt/ng DNA are depicted in Fig. 7. […] In particular, 1P led to a roughly 60-fold higher DNA platination level with respect to cisplatin.
A375 cells (3 × 10^6) were seeded in 10 cm Petri dishes in 10 mL of culture medium. Subsequently, cells were treated with the tested complexes (5 μM) for 24 h. The DNA was extracted and purified by a commercial spin column quantification kit (Qiagen DNeasy Blood and Tissue Kit). Only highly purified samples (A260/A230 ≅ 1.8 and […]) were included for analysis to avoid any artifacts. The samples were completely dried and re-dissolved in 200 μL of Milli-Q water (18.2 MΩ) for at least 20 min at 65 °C in a shaking thermo-mixer, mineralized and analyzed for total Pt content by GF-AAS as described above.

[7] = test system: A375 cells; test: ROS production (CM-H2DCFDA probe); conditions: A375, 12.5 μM, compared with antimycin positive control
Protocol: ROS are products of normal cell metabolism but their levels can be increased upon exposure to toxic agents or interference with the cellular redox network. […] Consequently, cellular ROS levels upon treatment with equal doses (12.5 μM) of the different platinum complexes were monitored in A375 cancer cells by using the peroxide-sensitive fluorescent probe CM-H2DCFDA (5-(and-6)-chloromethyl-2′,7′-dichlorodihydrofluorescein diacetate, acetyl ester). Antimycin, a classical inhibitor of the mitochondrial respiratory chain at the level of complex III, was used as a positive control.
Figure 8 ROS production in A375 cells. Cells were preincubated in PBS/10 mM glucose medium for 20 min at 37 °C in the presence of 10 μM CM-DCFDA and then treated with equimolar doses (12.5 μM) of indole propionic acid Pt(IV) derivatives (panel A) or indole acetic acid Pt(IV) derivatives (panel B). The fluorescence of DCF was measured.
The production of ROS was measured in A375 cells (10^4 per well) grown for 24 h in 96-well plates in DMEM medium without phenol red (Sigma Chemical Co.). Cells were then washed with PBS and loaded with 10 μM 5-(and-6)-chloromethyl-2′,7′-dichlorodihydrofluorescein diacetate, acetyl ester (CM–H2DCFDA) (Molecular Probes-Invitrogen) for 25 min in the dark. Afterwards, cells were washed with PBS and incubated with increasing concentrations of the tested complexes. The fluorescence increase was estimated with a plate reader (Fluoroskan Ascent FL, Labsystem, Finland) at 485 (excitation) and 527 nm (emission). Antimycin (3 μM, Sigma Chemical Co.), a potent inhibitor of Complex III in the electron transport chain, was used as positive control.

| SMILES | IC50 [1] [µM] | IC50 [2] [µM] | IC50 [3] [µM] | IC50 [4] [µM] | IC50 [5] [µM] | RF (resistance factor) [5] | DNA platination (in words) [6] | times more effective than cisplatin [1] | ROS production (in words) [7] | DNA platination level, fold higher than cisplatin ([6]; GF-AAS) |
| --- | --- | --- | --- | --- | --- | --- | --- | --- | --- | --- |
| [NH2][Pt]([NH2])([Cl])([Cl])([O]C(=O)Cc1c[nH]c2ccccc12)[O]C(=O)c1ccccc1 [Complex 3A] | 2.56 ± 1.07 | 3.76 ± 0.76 | 6.31 ± 0.94 | 3.53 ± 0.6 | 6.52 ± 1.96 | 0.7 | most effective platination of cellular DNA |  |  |  |
| [NH2][Pt]([NH2])([OH])([Cl])([Cl])[O]C(=O)Cc1c[nH]c2ccccc12 [Complex 1A] | 2.64 ± 0.97 | 3.62 ± 0.94 | 2.1 ± 1.04 | 1.31 ± 0.82 | 2.51 ± 1.5 | 0.9 | most effective platination of cellular DNA | four times |  |  |
| CC(=O)[O][Pt]([NH2])([NH2])([Cl])([Cl])[O]C(=O)Cc1c[nH]c2ccccc12 [Complex 5A] | 44.4 ± 6.19 | 43.26 ± 0.22 | 3.07 ± 0.31 | 26.9 ± 4.04 | 46.6 ± 3.41 | 1.1 | lowest DNA platination capability |  | did not alter the cellular ROS concentration |  |
| [NH2][Pt]([NH2])([Cl])([Cl])([O]C(=O)CCC(=O)O)[O]C(=O)Cc1c[nH]c2ccccc12 [Complex 4A] | > 50 | > 50 | 3.94 ± 0.57 | 48.5 ± 1.48 | > 50 |  | lowest DNA platination capability |  | did not alter the cellular ROS concentration |  |
| [NH2][Pt]([NH2])([OH])([Cl])([Cl])[O]C(=O)CCc1c[nH]c2ccccc12 [Complex 1P, cis,cis,trans-[Pt(NH3)2Cl2(IPA)(OH)]] | 2.26 ± 0.99 | 3.78 ± 0.16 | 1.62 ± 0.34 | 0.76 ± 0.02 | 1.14 ± 0.5 | 0.8 | highest degree of DNA platination | four times | superior to that induced by antimycin | roughly 60 |

Reference: publication PMC4941645, “Oxidative Stress Induced by Pt(IV) Pro-drugs Based on the Cisplatin Scaffold and Indole Carboxylic Acids in Axial Position” (Scientific Reports, 2016)
